Reference: ChEMBL document CHEMBL1138375, “SAR studies of 6-(arylamino)-4,4-disubstituted-1-methyl-1,4-dihydro-benzo[d][1,3]oxazin-2-ones as progesterone receptor antagonists” (Bioorg Med Chem Lett, 2007)

target: T1, Progesterone receptor (Homo sapiens, UniProt P06401); experiment: Antagonist activity at progesterone receptor expressed in T47D cells assessed as inhibition of progesterone-induced alkaline phosphatase activity; type: functional, cell-based
T1 sequence (P06401 whole entry): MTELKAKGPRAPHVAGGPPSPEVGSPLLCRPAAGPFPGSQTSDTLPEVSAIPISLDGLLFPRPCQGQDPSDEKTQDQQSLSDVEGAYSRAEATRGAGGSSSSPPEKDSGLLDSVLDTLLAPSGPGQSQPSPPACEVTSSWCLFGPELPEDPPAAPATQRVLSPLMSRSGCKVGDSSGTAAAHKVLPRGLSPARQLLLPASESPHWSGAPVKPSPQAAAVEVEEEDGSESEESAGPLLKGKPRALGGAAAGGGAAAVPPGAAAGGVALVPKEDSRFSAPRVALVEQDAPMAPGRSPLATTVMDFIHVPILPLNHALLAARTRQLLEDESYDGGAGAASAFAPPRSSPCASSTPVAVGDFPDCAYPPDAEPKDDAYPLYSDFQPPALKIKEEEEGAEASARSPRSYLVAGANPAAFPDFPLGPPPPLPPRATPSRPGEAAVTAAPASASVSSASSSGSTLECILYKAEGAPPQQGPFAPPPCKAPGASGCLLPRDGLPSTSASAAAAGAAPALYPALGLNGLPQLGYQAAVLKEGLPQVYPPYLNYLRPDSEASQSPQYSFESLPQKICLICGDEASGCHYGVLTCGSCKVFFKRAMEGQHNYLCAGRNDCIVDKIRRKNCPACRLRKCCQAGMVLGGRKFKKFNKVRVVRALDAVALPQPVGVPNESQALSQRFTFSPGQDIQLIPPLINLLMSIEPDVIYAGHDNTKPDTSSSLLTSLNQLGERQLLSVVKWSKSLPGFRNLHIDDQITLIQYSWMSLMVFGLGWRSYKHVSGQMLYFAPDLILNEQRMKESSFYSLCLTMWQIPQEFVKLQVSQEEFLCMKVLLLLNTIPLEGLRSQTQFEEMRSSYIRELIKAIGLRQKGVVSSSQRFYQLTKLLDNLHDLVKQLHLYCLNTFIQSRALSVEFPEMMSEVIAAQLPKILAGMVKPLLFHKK

Row | SMILES | IC50 [µM]
1 | CCC1(c2ccccc2)OC(=O)N(C)c2ccc(Nc3cccc(Cl)c3)cc21 (centres undefined) | 0.0661
2 | CCC1(c2ccc(Cl)cc2)OC(=O)N(C)c2ccc(Nc3cccc(Cl)c3)cc21 (centres undefined) | 0.0718
3 | CN1C(=O)OC(C)(C)c2cc(Nc3cccc(Cl)c3Cl)ccc21 | 0.056
4 | CN1C(=O)OC(C)(C)c2cc(Nc3ccc(Br)cc3)ccc21 | 0.0544
5 | CCN1C(=O)OC(C)(C)c2cc(Nc3ccc(Br)cc3)ccc21 | 1
6 | CC1(C)OC(=O)N(c2ccccc2)c2ccc(Nc3ccc(Br)cc3)cc21 | 3
7 | CC1(C)OC(=O)N(Cc2ccccc2)c2ccc(Nc3ccc(Br)cc3)cc21 | 3
8 | CN1C(=S)OC(C)(C)c2cc(Nc3ccc(Br)cc3)ccc21 | 0.03
9 | CN1C(=O)OC(c2ccc(Cl)cc2)(c2ccc(Cl)cc2)c2cc(Nc3cccc(Cl)c3)ccc21 | 1
10 | CN1C(=O)OC(C)(C)c2cc(Nc3ccc(Cl)c(Cl)c3)ccc21 | 0.1
11 | CC1(C)OC(=O)Nc2ccc(Nc3cccc(Cl)c3Cl)cc21 | 0.206
12 | CC(C)N1C(=O)OC(C)(C)c2cc(Nc3ccc(Br)cc3)ccc21 | 1
13 | CCC1(c2cccs2)OC(=O)N(C)c2ccc(Nc3cccc(Cl)c3)cc21 (centres undefined) | 0.0322

Continued, values first:

Row | IC50 [µM] | SMILES
14 | 0.0092 | CCC1(CC)OC(=O)N(C)c2ccc(Nc3ccc(F)c(C#N)c3)cc21
15 | 0.0081 | CCC1(CC)OC(=O)N(C)c2ccc(Nc3cc(Cl)cc(Cl)c3)cc21
16 | 0.0145 | CCC1(CC)OC(=O)N(C)c2ccc(Nc3cc(F)cc(C#N)c3)cc21
17 | 0.0274 | CCC1(CC)OC(=O)N(C)c2ccc(Nc3ccc(F)c(F)c3)cc21
18 | 0.0422 | CCC1(CC)OC(=S)N(C)c2ccc(Nc3ccc(F)c(F)c3)cc21
19 | 0.005 | CCC1(CC)OC(=O)N(C)c2ccc(Nc3cccc(Cl)c3Cl)cc21
20 | 0.0131 | CCC1(CC)OC(=O)N(C)c2ccc(Nc3cccc(Cl)c3)cc21
21 | 0.0298 | CCC1(CC)OC(=O)N(C)c2ccc(Nc3ccc(Cl)c(Cl)c3)cc21
22 | 0.0371 | CCC1(CC)OC(=O)N(C)c2ccc(Nc3ccc(C#N)c(F)c3)cc21
23 | 0.0084 | CCC1(CC)OC(=O)N(C)c2ccc(Nc3cc(F)cc([N+](=O)[O-])c3)cc21
24 | 0.009 | CCC1(CC)OC(=O)N(C)c2ccc(Nc3ccc(F)c(Cl)c3)cc21
